From patent US11827628B2, “Compositions and methods for inhibition of the JAK pathway” (Rigel Pharmaceuticals, Inc., priority 2005, dated 2023)
pIC50: −log10 of the molar value.

test system: up-regulation of ICAM-1 (CD54) by IFNγ in U937 human monocytic cells; experiment: U937 IFNγ ICAM1 FACS Assay; assay type: cell-based; settings: Homo sapiens, U-937, U937 cells stimulated with IFNγ, ICAM-1 expression by FACS; read-out: IC50, Example 44
In short: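 U937 cells in 10% FCS RPMI were preincubated 30 min at 37 °C with an 8-point, 3-fold compound dilution series in duplicate, then stimulated with IFNγ for 18–24 h. Surface ICAM-1 was stained with APC anti-ICAM-1 and read by flow cytometry as geometric mean on live-gated cells. EC50 was derived.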

How did the pIC50 turn out when Cc1nnc(COc2ccc(Nc3nc(Nc4ccc(C)c(S(N)(=O)=O)c4)ncc3F)cc2)o1 [Compound I-279, N2-(3-Aminosulfonyl-4-methylphenyl)-5-fluoro-N4-[4-(5-methyl-1,3,4-oxadiazol-2-yl)methoxyphenyl]-2,4-pyrimidinediamine] was run?
The pIC50 was 6.04.

With NS(=O)(=O)c1ccc(Nc2ncc(F)c(Nc3ccc(Cc4ccncc4)cc3)n2)cc1 [III-71, N2-(4-Aminosulfonylphenyl)-5-fluoro-N4-[4-(4-pyridinylmethyl)phenyl]-2,4-pyrimidinediamine] as the compound, how does the pIC50 read?
Its pIC50 is 5.77.

How did the pIC50 turn out when CNC(=O)COc1ccc(Nc2nc(Nc3ccc(S(N)(=O)=O)cc3)ncc2C)cc1Cl [Compound I-149, N2-(4-Aminosulfonylphenyl)-N4-(3-chloro-4-methylaminocarbonylmethoxyphenyl)-5-methyl-2,4-pyrimidinediamine] was run?
Its pIC50 is 4.83.

Cc1ccc(Nc2ncc(F)c(Nc3ccc(OC4CCN(C)CC4)cc3)n2)cc1S(N)(=O)=O [II-7, N2-(3-Aminosulfonyl-4-methylphenyl)-5-fluoro-N4-{4-[(1-methylpiperidin-4-yl)oxy]phenyl}-2,4-pyrimidinediamine] was tested. Which pIC50 did it give?
The pIC50 was 5.79.

With Cc1cnc(Nc2cccc(S(N)(=O)=O)c2)nc1Nc1ccc(OCC(N)=O)cc1 [Compound I-109, N4-(4-Aminocarbonylmethoxyphenyl)-N2-(3-aminosulfonylphenyl)-5-methyl-2,4-pyrimidinediamine] as the compound, how does the pIC50 read?
Its pIC50 is 5.00.

CNC(=O)COc1ccc(Nc2nc(Nc3cccc(S(N)(=O)=O)c3)ncc2C)cc1Cl [Compound I-150, N2-(3-Aminosulfonylphenyl)-N4-(3-chloro-4-methylaminocarbonylmethoxyphenyl)-5-methyl-2,4-pyrimidinediamine] was tested. Which pIC50 did it give?
Its pIC50 is 4.98.

How did the pIC50 turn out when COc1cc(Nc2nc(Nc3cccc(S(N)(=O)=O)c3)ncc2F)ccc1OCC#N [Compound I-46, N2-(3-Aminosulfonylphenyl)-N4-(4-cyanomethoxy-3-methoxyphenyl)-5-fluoro-2,4-pyrimidinediamine] was run?
Its pIC50 is 6.12.

With Cc1ccc(Nc2ncc(F)c(Nc3ccc(OCC#N)c(CO)c3)n2)cc1S(N)(=O)=O [Compound I-51, N2-(3-Aminosulfonyl-4-methylphenyl)-N4-(4-cyanomethoxy-3-hydroxymethylphenyl)-5-fluoro-2,4-pyrimidinediamine] as the compound, how does the pIC50 read?
Its pIC50 is 4.49.

How did the pIC50 turn out when COc1cc(Nc2nc(Nc3ccc(S(N)(=O)=O)cc3)ncc2F)ccc1OCC#N [Compound I-45, N2-(4-Aminosulfonylphenyl)-N4-(4-cyanomethoxy-3-methoxyphenyl)-5-fluoro-2,4-pyrimidinediamine] was run?
Its pIC50 is 5.44.

How did the pIC50 turn out when C=CCNC(=O)COc1ccc(Nc2nc(Nc3ccc(C)c(S(N)(=O)=O)c3)ncc2F)cc1 [Compound I-159, N4-(4-Allylaminocarbonylmethoxyphenyl)-N2-(3-aminosulfonyl-4-methylphenyl)-5-fluoro-2,4-pyrimidinediamine] was run?
The pIC50 was 5.79.

With CNC(=O)OCCc1ccc(Nc2nc(Nc3cccc(S(N)(=O)=O)c3)ncc2F)cc1 [III-60, N2-(3-Aminosulfonylphenyl)-5-fluoro-N4-{4-[2-(methylaminocarbonyloxy)ethyl]phenyl}-2,4-pyrimidinediamine] as the compound, how does the pIC50 read?
Its pIC50 is 5.99.

How did the pIC50 turn out when NS(=O)(=O)c1cccc(Nc2ncc(F)c(NCCc3ccc(-n4ccnc4)cc3)n2)c1 [III-87, N2-(3-Aminosulfonylphenyl)-5-fluoro-N4-[4-(1-imidazolyl)phenethyl]-2,4-pyrimidinediamine] was run?
The pIC50 was 5.53.

same assay, conditions: U937 cells stimulated with IFNγ; ICAM-1 expression by FACS; read-out: IC50, Example 44

With Cc1noc(CCc2ccc(Nc3nc(Nc4cccc(S(N)(=O)=O)c4)ncc3F)cc2)n1 [III-106, N2-(3-Aminosulfonylphenyl)-5-fluoro-N4-[4-(3-methyl-1,2,4-oxadiazol-5-yl)ethylenephenyl]-2,4-pyrimidinediamine] as the compound, how does the pIC50 read?
The pIC50 was 6.31.

How did the pIC50 turn out when Cc1ccc(Nc2ncc(F)c(Nc3ccc(CN4CCOCC4)cc3)n2)cc1S(N)(=O)=O [III-104, N2-(3-Aminosulfonyl-4-methylphenyl)-5-fluoro-N4-(4-N-morpholinomethylenephenyl)-2,4-pyrimidinediamine] was run?
The pIC50 was 5.67.

How did the pIC50 turn out when CNS(=O)(=O)c1cc(Nc2ncc(F)c(Nc3ccc(-c4cnco4)cc3)n2)ccc1C [IV-7, 5-Fluoro-N2-[3-(N-methylaminosulfony)-4-methylphenyl]-N4-[4-(1,3-oxazol-5-yl)phenyl]-2,4-pyrimidinediamine] was run?
The pIC50 was 5.91.
